“Also recorded” adds a separate entry of the source. Where a SMILES comes first, the peptide text is derived from it.
Key:
Format in all cases: physicochemical
[1] = Solubility in DMSO / organic solvents, determined visually; conditions: room temperature, concentration of 10 mg/mL (ca. 10 mg/mL for NMR)
Text: We considered building blocks 1–3 as Fmoc‐protected pseudo‐ring building blocks that could be implemented into the Fmoc SPPS approach. The building block 1 was readily prepared from 3‐methyl SA (see Supporting Information). […] The building block 3 was made from commercially available 7‐carboxyindole over seven steps. This procedure was scalable and required no chromatographic purifications (see Supporting Information). With 1 and 3 in hand, we turned our attention towards their application in SPPS. […] Through cyclization of the linear pentafluorophenol (PFP) ester at high dilution in DMF with DIPEA, cyclic peptides 4 (25% overall yield) and 5 (28% overall yield) were obtained from building block 1. The cyclic peptides 6 (17% overall yield) and 7 (21% overall yield) were prepared from building block 3 (Figure 3a,b). At the same time, we synthesized cyclic peptide controls devoid of the pseudo‐ring core through a conventional Fmoc SPPS strategy (Figure 3c) with a Gly‐Gly in place of the pseudo‐ring scaffold. Similarly, we prepared peptides 10 and 11, which represent depeptidized homodetic sequences that contain a backbone‐embedded arene that lacks the X─H pseudo‐ring hydrogen bond donor (Figure 3c). To draw further comparison between pseudo‐ring‐containing and regular heterocycle‐containing peptides, we attempted to synthesize the indole‐containing analogues of peptides 6 and 7 (see Supporting Information). […] During the preparation of cyclic peptides 4–11, we noticed that macrocycles devoid of a pseudo‐ring were frustratingly insoluble in all organic solvents as well as in water. As result, these peptides (8–11) were purified by hot trituration in methanol/water. The solubilities/lipophilicities of peptides 4–11 will be discussed later in this paper. […]
Reversed‐phase HPLC retention times have proven to be a useful metric in determining the permeability of peptide macrocycles, as longer retention times typically equate to lower aqueous solubility, lower polarity, and increased lipophilicity.^[ [34], [35], [36], [37] ^] We were keen to use these HPLC retention times as a tool to assess the modulation of lipophilicity of the pseudo‐ring‐containing macrocycles. At the same time, we were interested in collecting solubility measurements for each macrocycle in both organic solvents (DMSO) as well as in water by visually determining each macrocycle's solubility. Our analysis began with the proteinogenic peptides 8 and 9 (Figure 6a). From the NMR studies, we recognized that these peptides had extremely poor solubility in d6 ‐DMSO (Figure 6c). […] HPLC analysis of these peptides confirmed that proteinogenic sequences correspond to extremely polar peptides. On a 15‐min HPLC gradient (from 5% MeCN/H2O to 95% MeCN/H2O with 0.1% formic acid), macrocycles 8 and 9 had HPLC retention times of 5.3 min and 4.8 min, respectively. Both 8 and 9 contain similar hydrogen bonding patterns, which is reflected in their similar hydrophilicities and HPLC retention times. Similar results were obtained with peptides 10 and 11 (Figure 6a). […] We were keen to decipher whether the inclusion of either “open” or “closed” pseudo‐ring residues could lead to noticeable solubility and lipophilicity differences. […] This increase in […] likely results from the now exposed polar phenolic OH group paired with the disrupted IMHB networks that were present within the backbone of 4. […] With this in mind, we began analyzing our dicarbonyl‐containing macrocycles 6 and 7. […] Similarly, this marks the first instance in which we have been able to access a class of macrocycles with chameleonic behavior whereby we can reliably access both “open” and “closed” forms using pseudo‐rings. […] Unique to this series of macrocycles, the “open” pseudo‐ring macrocycle 7 is extremely hydrophilic.

[2] = Reversed-phase HPLC retention time as measure of lipophilicity; conditions: 15-min gradient from 5% MeCN/H2O to 95% MeCN/H2O with 0.1% formic acid, longer time = more lipophilic
Text: Reversed‐phase HPLC retention times have proven to be a useful metric in determining the permeability of peptide macrocycles, as longer retention times typically equate to lower aqueous solubility, lower polarity, and increased lipophilicity.^[ [34], [35], [36], [37] ^] We were keen to use these HPLC retention times as a tool to assess the modulation of lipophilicity of the pseudo‐ring‐containing macrocycles. At the same time, we were interested in collecting solubility measurements for each macrocycle in both organic solvents (DMSO) as well as in water by visually determining each macrocycle's solubility. Our analysis began with the proteinogenic peptides 8 and 9 (Figure 6a). From the NMR studies, we recognized that these peptides had extremely poor solubility in d6 ‐DMSO (Figure 6c). […] HPLC analysis of these peptides confirmed that proteinogenic sequences correspond to extremely polar peptides. On a 15‐min HPLC gradient (from 5% MeCN/H2O to 95% MeCN/H2O with 0.1% formic acid), macrocycles 8 and 9 had HPLC retention times of 5.3 min and 4.8 min, respectively. Both 8 and 9 contain similar hydrogen bonding patterns, which is reflected in their similar hydrophilicities and HPLC retention times. Similar results were obtained with peptides 10 and 11 (Figure 6a). […]

[3] = Solubility in water, determined visually; conditions: concentration of 10 mg/mL
Text: We considered building blocks 1–3 as Fmoc‐protected pseudo‐ring building blocks that could be implemented into the Fmoc SPPS approach. The building block 1 was readily prepared from 3‐methyl SA (see Supporting Information). […] The building block 3 was made from commercially available 7‐carboxyindole over seven steps. This procedure was scalable and required no chromatographic purifications (see Supporting Information). With 1 and 3 in hand, we turned our attention towards their application in SPPS. […] Through cyclization of the linear pentafluorophenol (PFP) ester at high dilution in DMF with DIPEA, cyclic peptides 4 (25% overall yield) and 5 (28% overall yield) were obtained from building block 1. The cyclic peptides 6 (17% overall yield) and 7 (21% overall yield) were prepared from building block 3 (Figure 3a,b). At the same time, we synthesized cyclic peptide controls devoid of the pseudo‐ring core through a conventional Fmoc SPPS strategy (Figure 3c) with a Gly‐Gly in place of the pseudo‐ring scaffold. Similarly, we prepared peptides 10 and 11, which represent depeptidized homodetic sequences that contain a backbone‐embedded arene that lacks the X─H pseudo‐ring hydrogen bond donor (Figure 3c). […]

CC[C@H](C)[C@@H]1NC(=O)c2cccc(c2O)CNC(=O)[C@H](Cc2ccccc2)NC(=O)CNC(=O)[C@H](C)NC1=O [compound 4] (HELM PEPTIDE1{A.G.F.[O=C(c1cccc(CN[*:1])c1O)[*:2]].I}$PEPTIDE1,PEPTIDE1,1:R1-5:R2$$$V2.0)
Solubility in DMSO (d6-DMSO) [1]: readily soluble; also recorded: much more soluble in DMSO than their non‐pseudo‐ring counterparts
HPLC retention time [2]: 7.7 min

C[C@@H]1NC(=O)[C@@H]2CCCN2C(=O)c2cccc(c2O)CNC(=O)[C@H](Cc2ccccc2)NC(=O)CNC1=O [compound 5] (HELM PEPTIDE1{A.G.F.[O=C(c1cccc(CN[*:1])c1O)[*:2]].P}$PEPTIDE1,PEPTIDE1,1:R1-5:R2$$$V2.0)
Solubility in DMSO (d6-DMSO) [1]: readily soluble; also recorded: much more soluble in DMSO than their non‐pseudo‐ring counterparts

CC[C@H](C)[C@@H]1NC(=O)c2cccc(c2N)C(=O)CNC(=O)[C@H](Cc2ccccc2)NC(=O)CNC(=O)[C@H](C)NC1=O [compound 6] (HELM PEPTIDE1{A.G.F.[Nc1c(C(=O)CN[*:1])cccc1C(=O)[*:2]].I}$PEPTIDE1,PEPTIDE1,1:R1-5:R2$$$V2.0)
Solubility in DMSO (d6-DMSO) [1]: highly soluble

C[C@@H]1NC(=O)[C@@H]2CCCN2C(=O)c2cccc(c2N)C(=O)CNC(=O)[C@H](Cc2ccccc2)NC(=O)CNC1=O [compound 7] (HELM PEPTIDE1{A.G.F.[Nc1c(C(=O)CN[*:1])cccc1C(=O)[*:2]].P}$PEPTIDE1,PEPTIDE1,1:R1-5:R2$$$V2.0)
Solubility in H2O [3]: highly soluble
Solubility in DMSO (d6-DMSO) [1]: highly soluble

CC[C@H](C)[C@@H]1NC(=O)CNC(=O)CNC(=O)[C@H](Cc2ccccc2)NC(=O)CNC(=O)[C@H](C)NC1=O [compound 8] (HELM PEPTIDE1{A.G.F.G.G.I}$PEPTIDE1,PEPTIDE1,1:R1-6:R2$$$V2.0)
Solubility in DMSO (d6-DMSO) [1]: could not be fully solubilized
HPLC retention time [2]: 5.3 min

C[C@@H]1NC(=O)[C@@H]2CCCN2C(=O)CNC(=O)CNC(=O)[C@H](Cc2ccccc2)NC(=O)CNC1=O [compound 9] (HELM PEPTIDE1{A.G.F.G.G.P}$PEPTIDE1,PEPTIDE1,1:R1-6:R2$$$V2.0)
Solubility in DMSO (d6-DMSO) [1]: could not be fully solubilized

CC[C@H](C)[C@@H]1NC(=O)c2cccc(c2)CNC(=O)[C@H](Cc2ccccc2)NC(=O)CNC(=O)[C@H](C)NC1=O [compound 10] (HELM PEPTIDE1{[O=C(c1cccc(CN[*:1])c1)[*:2]].I.A.G.F}$PEPTIDE1,PEPTIDE1,1:R1-5:R2$$$V2.0)
Solubility in DMSO (d6-DMSO) [1]: poorly soluble

C[C@@H]1NC(=O)[C@@H]2CCCN2C(=O)c2cccc(c2)CNC(=O)[C@H](Cc2ccccc2)NC(=O)CNC1=O [compound 11] (HELM PEPTIDE1{[O=C(c1cccc(CN[*:1])c1)[*:2]].P.A.G.F}$PEPTIDE1,PEPTIDE1,1:R1-5:R2$$$V2.0)
Solubility in DMSO (d6-DMSO) [1]: could be solubilized in d6 ‐DMSO at room temperature only after sonication

Reference: PMC12043042, “Pseudo‐Ring Methodology to Control the Conformations of Macrocyclic Peptides” (Chemistry (Weinheim an Der Bergstrasse, Germany), 2025)
